Results from EP4741439A1, “BLOCK COPOLYMER CONTAINING REPEATING UNIT OF POLY([R, S]BETA-HYDROXYBUTYRATE), NANOPARTICLES FORMED FROM SAID COPOLYMER, AND PRODUCTION AND USE OF THOSE” (University of Tsukuba, priority 2023, dated 2025).

Tests used:
[1] = test system: cisplatin-induced acute kidney injury (AKI); assay: Protective effect on acute kidney injury by subcutaneous injection; assay type: in vivo, C57BL/6J male mice; details: subcutaneous injection about 250 mg in terms of BHB/kg, 6 hours prior to cisplatin 20 mg/kg; 72 hours after challenge
Experimental: C57BL/6J male mice (8 weeks old) were divided into four groups for use in different treatments. Acute kidney injury was induced by intraperitoneal injection of cisplatin (20 mg/kg). A mouse was pretreated with subcutaneous injection of physiological saline (n = 11) or sodium β-hydroxybutyrate (at a dose in terms of BHB/kg of about 250 mg, n = 1) or Nano^BHB (at a dose in terms of BHB/kg of about 250 mg, n = 10) 6 hours prior to exposure to cisplatin. The healthy group (n = 8) was injected with physiological saline instead of cisplatin. 72 hours after the cisplatin challenge, the mouse was sacrificed, and blood plasma and kidney were collected. Renal function was assessed by measuring the levels of blood urea nitrogen (BUN), creatinine (CRE), aspartate transaminase (AST). […] In the figure, (A) represents a scheme of animal experiment, (B) is a graphical representation of data on blood urea nitrogen in plasma of an AKI mouse 3 days after injection of cisplatin, (C) is a graphical representation of data on creatinine, (D) is a graphical representation of data on aspartate transaminase, (E) is a presentation image of periodic acid Schiff (PAS) staining at 20 fold magnification of kidney tissue, and (F) is a graph summarizing data of the result of quantitative measurement of a damaged region of the kidney from a stained image. […]

[2] = test system: Bovine aortic endothelial cells (BAEC); assay: Cytotoxicity, WST cell viability; assay type: cell-based; details: 24 hours, BHB content from 0 to 25.4 mM
Experimental: Bovine aortic endothelial cells (BAEC) (available from RIKEN (RIKEN, Tsukuba, Japan)) were pre-seeded on a 96 well (well) plate and incubated with either Nano^BHB or BHB at different concentrations with a BHB content of from 0 to 25.4 mM in a medium. After 24 hours, the medium was discarded, followed by addition of 100 µL of medium containing 10 µL of WST agent and incubation for 4 hours. In a final process, cell viability was measured based on a ratio of optical signals of a subject well and a water treatment group well at a wavelength of 450 nm in each well.

For CC(O)CC(=O)[O-].[Na+] (stereo not drawn) [sodium β-hydroxybutyrate], the “Effect against cisplatin-induced acute kidney injury (BUN, CRE, AST, PAS staining)” value [1] was “no decrease in renal function is observed” and the “survival rate and morphology of the BAEC cells” value [2] was “do not affect”.
